{"source": "patent US20030195169A1", "about": "“Phosphate prodrugs of fluorooxindoles” (priority 2002, published 2003)", "key": {"[1]": {"tested_on": "non-BK native currents in the oocytes", "assay": "Non-BK native currents in oocytes (current remaining in presence of IBTX)", "format": "cell-based, Xenopus", "conditions": "at the tested concentration", "experimental": "(§1) The ability of the compound of Formula II to open BK channels and increase whole-cell outward (K^+) BK-mediated currents was assessed under voltage-clamp conditions by determining their ability to increase cloned mammalian (mSlo or hSlo) BK-mediated outward current heterologously expressed in Xenopus oocytes [Butler, A., et al., Science, 261, pp. 221-224 (1993); and Dworetzky, S. I., et al., Mol. Brain Res., 27, pp. 189-193 (1994)]. The two BK constructs employed represent nearly structurally identical homologous proteins, and have proven to be pharmacologically identical in our tests. To isolate BK current from native (background, non-BK) current, the specific and potent BK channel-blocking toxin iberiotoxin (IBTX) [Galvez, A., et al., J. Biol. Chem, 265, pp. 11083-11090 (1990)] was employed at a supramaximal concentration (50 nM). The relative contribution of BK channels current to total outward current was determined by subtraction of the current remaining in the presence of IBTX (non-BK current) from the current profiles obtained in all other experimental conditions (control, drug, and wash). […] The compound of Formula II was shown in at least 5 oocytes at a concentration of 10 μM to increase BK current to 170% of control of IBTX-sensitive current. […]"}, "[2]": {"tested_on": "cloned mammalian (mSlo or hSlo) BK channels heterologously expressed in Xenopus oocytes", "assay": "BK-mediated outward current, two-electrode voltage clamp in Xenopus oocytes", "format": "cell-based", "conditions": "10 μM; at least 5 oocytes", "experimental": "as §1"}, "[3]": {"tested_on": "focal cerebral ischemia (MCAO) in the Wistar rat", "assay": "Focal stroke model, permanent MCA/CCA occlusion", "format": "in vivo", "conditions": "0.3 mg/kg intravenously, single bolus two hours after MCAO; vs vehicle-treated control; 24 hours after MCAO", "experimental": "To determine the ability of the compounds of the present invention to reduce cell loss resulting from neuronal ischemia, a standard focal cerebral ischemia is induced by permanent occlusion of the left middle cerebral artery (MCA) and common carotid artery (CCA) with one hour occlusion of the right CCA in the Wistar rat. The surgeries are performed using the sub-temporal approach of A. Tamura, et al., J. Cereb. Blood Flow Metab., 1, pp. 53-60, (1981) and its modifications [K. Osborne, et al., J. Neurol Neurosurg. Psychiatry, 50, pp. 402-410 (1987) and S. Menzies, et al., Neurosurgery, 31, pp. 100-107, (1992)].\nThe compound of Formula II was evaluated in the focal stroke model involving permanent occlusion of the left MCA (MCAO) and CCA (CCAO) and temporary occlusion of the right CCA in the Wistar rat [Gribkoff, et al. Nature Med. 7, pp. 471-477 (2001)]. This procedure results in a reliably large neocortical infarct volume that is measured by means of vital dye exclusion in serial slices through the brain 24 hours after MCAO. In the present test, compounds were administered using an i.v. or i.p. route of administration two hours after occlusion."}, "[4]": {"tested_on": "rat traumatic brain injury (TBI) model", "assay": "Rat traumatic brain injury (lateral fluid percussion) model, intracranial pressure (ICP) measurement", "format": "in vivo", "conditions": "0.08 mg/kg", "experimental": "To determine the ability of the compounds of the present invention to decrease the amount of neuronal damage following head injury, a standard model of traumatic brain injury was employed. The rat traumatic brain injury (TBI) model is used to evaluate compounds for effectiveness in reversing or preventing the deleterious effects of a concussion-like injury. In general, rats in this model were anesthetized, a craniotomy is performed (surgical opening of the skull), and then saline was injected into the opening to produce a precise pulse of increased intracranial pressure (commonly called a fluid percussion injury). Animals were administered compound at the specified doses at 15 minutes following trauma. Animals were euthanized 48 hours post TBI.\nModerate diffuse brain injury (defined by McIntosh, et al. Neuroscience, 28:233-44 (1989)) was induced by a fluid-percussion device. The apparatus produces contusion via the rapid injection of a saline pulse [˜2.1 to 2.7 atmospheres of pressure (atm)] at a constant duration (21-23 millisecond) into a closed cranial cavity. The saline pulse results in the brief displacement and deformation of the underlying cortex. This model is thought to mimic the clinical situation where a patient experiences a concussion-like injury characterized by brief neurological and systemic physiological alterations without severe structural damage. The fluid percussion device produces brain injury without directly impacting the brain. Diffuse brain injury is achieved by the release of a weighted (4.8 kg) metal pendulum from a predetermined height (McIntosh, et al 1989) that strikes a cork-covered piston at the end of a Plexiglass cylindrical reservoir filled with isotonic saline. Varying volumes of saline are injected into the closed cranial cavity producing a pulse of increased intracranial pressure (ICP). Varying the height of the pendulum controls the magnitude of the injury.\nIn an alternate method, the severity of brain damage was assessed by Intracranial Pressure (ICP) measurement at various intervals post fluid percussion up to 24 hours. In brief, prior to the fluid percussion a burr hole was made 1 mm from the sagittal suture, centered over the right parietal cortex 5 mm from lambda, 5 mm from bregma. Following fluid percussion injury, the trauma cap and cranioplastic cement were removed. In order to achieve adequate ICP values, while still under anesthesia, the craniotomy cap was re-inserted in its original location post fluid percussion. Pre-cut sterile foil was also placed over the craniotomy cap. Cranioplastic cement was placed over the foil to seal the brain cavity. To obtain continuous ICP measurements the probe was inserted into the burr hole and fixed by cranioplastic cement, the animal was then sutured (using 3-0) and the rat was placed in a Hopper cage to allow for free movement during the experiment. Next, the ICP transducer was connected to a Codman ICP monitor for continuous ICP measurements up to 24 hrs post-TBI or post-sham injury. During this time the animal had regular access to water and food. At 24 hrs post-TBI the experiment was terminated and animals were euthanatized by sodium pentobarbital overdose (130 mg/kg; i.p.).\nThese experiments consist of a sham-vehicle group (SV), a TBI-vehicle group (TV), sham-drug treated groups (SD; 0.08 mg/kg compound of Example 14 [dose equivalent of 0.05 mg/kg compound of Formula (S)-II]) and TBI-drug treated groups (TD; 0.08 mg/kg compound of Example 14). Each sham group acted as a control for the corresponding TBI group. All of the animals underwent anesthesia and surgery. In the TBI groups, brain injury was induced using the lateral fluid-percussion model. Drug treatment was initiated at 15 minutes post-TBI or sham-injury. […] Five minutes post injury absolute ICP (raw data) increased 6.8 mmHg units in TV animals compared to SV animals (SV-5.55 vs. TV-12.35). […]"}, "[5]": {"conditions": "cited from earlier work"}, "[6]": {"assay": "Solubility (qualitative statements)", "format": "physicochemical"}, "[7]": {"assay": "Rat blood levels of compound (S)-II after prodrug administration", "format": "in vivo, male Sprague-Dawley rats", "conditions": "intravenous bolus, dose equivalent to 1 mg/kg of (S)-II; whole blood; LC/MS/MS; n=3 rats/timepoint", "experimental": "The compound of Formula (S)-II or a prodrug of Formula I was administered intravenous bolus to male Sprague-Dawley rats (n=3 rats/timepoint) at a target dose equivalent to 1 mg/kg of the compound of Formula (S)-II. At T=0.25, 1 and 2 hours post-dose, whole blood samples were collected and extracted with acetonitrile. Blood extracts were analyzed by LC/MS/MS for levels of the compound of Formula (S)-II."}}, "data": [{"compound": "COc1ccc(Cl)cc1C1(F)C(=O)Nc2cc(C(F)(F)F)ccc21", "note": "(racemic) [compound of Formula II, 3-(5-chloro-2-methoxyphenyl)-1,3-dihydro-3-fluoro-6-(trifluoromethyl)-2H-indol-2-one]", "values": [{"measurement": "effect on non-BK native currents in the oocytes", "setting": "[1]", "value": "did not effect non-BK native currents"}, {"measurement": "BK current, % of control of IBTX-sensitive current", "setting": "[2]", "value": "170 % of control"}, {"measurement": "reduction of cortical infarct volume", "setting": "[3]", "value": "about 28%"}]}, {"compound": "COc1ccc(Cl)cc1[C@]1(F)C(=O)N(COP(=O)([O-])[O-])c2cc(C(F)(F)F)ccc21.[K+].[K+]", "note": "[Example 14, (S)-Phosphoric acid mono-[3-(5-chloro-2-methoxy-phenyl)-3-fluoro-2-oxo-6-trifluoromethyl-2,3-dihydro-indol-1-ylmethyl] ester, potassium salt]", "values": [{"measurement": "intra-animal mean ICP reduction, TD", "setting": "[4]; 30 minutes post injury", "value": "−2.85", "unit": "mmHg"}, {"measurement": "intra-animal mean ICP reduction, TD", "setting": "[4]; 45 minutes post injury", "value": "−3.95", "unit": "mmHg"}, {"measurement": "absolute ICP, TD vs TV, significance", "setting": "[4]; 45 minutes, 60 minutes, 2, 3, 4 and 24 hours post-TBI", "value": "significantly different from TV"}, {"measurement": "intra-animal mean ICP reduction, TD", "setting": "[4]; 60 min post injury", "value": "−4.5", "unit": "mmHg"}, {"measurement": "reduction of absolute ICP, TD vs TV", "setting": "[4]; 60 minutes post injury (45 minutes post-drug injection)", "value": 3.1, "unit": "mmHg units"}, {"measurement": "intra-animal mean ICP reduction, TD", "setting": "[4]; 2 hours post injury", "value": "−4.3", "unit": "mmHg"}, {"measurement": "intra-animal mean ICP reduction, TD", "setting": "[4]; 3 hr post injury", "value": "−4.3", "unit": "mmHg"}, {"measurement": "intra-animal mean ICP reduction, TD", "setting": "[4]; 4 hours post injury", "value": "−4.15", "unit": "mmHg"}, {"measurement": "intra-animal mean ICP reduction, sham-drug group (SD)", "setting": "[4]; 4 hours post-sham injury", "value": "−2.1", "unit": "mmHg"}, {"measurement": "intra-animal mean ICP reduction, TD", "setting": "[4]; 24 hours post injury", "value": "−3.05", "unit": "mmHg"}, {"measurement": "ICP, SD vs SV, significance", "setting": "[4]; sham injury, until 4 hours post-sham injury", "value": "did not significantly differ from SV"}]}, {"compound": "COc1ccc(Cl)cc1[C@]1(F)C(=O)Nc2cc(C(F)(F)F)ccc21", "note": "[Compound of Formula (S)-II, (3S)-(+)-(5-chloro-2-methoxyphenyl)-1,3-dihydro-3-fluoro-6-(trifluoromethyl)-2H-indol-2-one]", "values": [{"measurement": "aqueous solubility", "setting": "[5]", "value": "low aqueous solubility"}]}, {"compound": "COc1ccc(Cl)cc1[C@]1(F)C(=O)N(COP(=O)([O-])[O-])c2cc(C(F)(F)F)ccc21.[Mg+2]", "note": "[Example 18, (S)-Phosphoric acid mono-[3-(5-chloro-2-methoxy-phenyl)-3-fluoro-2-oxo-6-trifluoromethyl-2,3-dihydro-indol-1-ylmethyl] ester, magnesium salt]", "values": [{"measurement": "solubility in water", "setting": "[6]", "value": "marginally soluble in water"}, {"measurement": "solubility in organic solvents", "setting": "[6]; relative to water", "value": "more soluble in organic solvents"}]}, {"compound": "(S)-Phosphoric acid mono-[3-(5-chloro-2-methoxy-phenyl)-3-fluoro-2-oxo-6-trifluoromethyl-2,3-dihydro-indol-1-ylmethyl] ester, mono tetrabutylammonium salt [Example 2]", "values": [{"measurement": "Truncated Blood AUC(0.25-2 hr) Compound of Formula (S)-II", "setting": "[7]", "value": 188, "unit": "ng·h/mL"}]}]}
